The source of these data is patent US9187472B2 (AbbVie Inc., priority 2012, dated 2015).

Test [1] addresses NAMPT (human, recombinant, C-terminally His-tagged) (Homo sapiens, UniProt P43490). Kind of test: Time-Resolved Fluorescence Resonance Energy Transfer (TR-FRET) Binding Assay of NAMPT. Particulars: without substrates; 6.8 nM NAMPT, 200 nM probe, 3 hours equilibration. An outline of the steps:
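In a displacement format, the nicotinamide-site tracer at 200 nM competed with test compound for 6.8 nM enzyme detected via 1 nM terbium anti-His antibody; incubation lasted 3 hours at room temperature in 50 mM HEPES pH 7.5, 100 mM NaCl. Normalized 520/495 nm emission ratios gave IC50 values.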

The subject of another test is PC3 cells. The test can be described thus: NAMPT Cell Proliferation Assay. The format is cell-based. The conditions noted are these: Homo sapiens, PC-3, 120 h, 5 days incubation, cell viability by Cell Titer Glo. An outline of the steps:
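Seed PC3 at 500 cells/well (RPMI, 10% HI-FBS), attach overnight; add compound, 10-fold series 10 μM → 1×10^−5 μM; incubate 5 d, 37° C/5% CO2; luminescent viability readout; fit % inhibition sigmoidally for IC50.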

For another test, the target named is NAMPT (Homo sapiens, UniProt P43490). Kind of test: TR-FRET Binding Assay of NAMPT with PRPP. The conditions noted are these: with 200 μM PRPP and 2.5 mM ATP; 2 nM NAMPT, 2 nM probe, 16 hours equilibration. An outline of the steps: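 Substrate-containing variant: 200 μM PRPP plus 2.5 mM ATP are added to 2 nM NAMPT and 2 nM probe, with a 16-hour incubation ahead of TR-FRET reading.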
For orientation: Time-resolved FRET reads energy transfer from a long-lived donor to a nearby acceptor.

The IC50 is the point on the concentration scale where inhibition reaches its midpoint.

Structures are written as SMILES.

Sequence of NAMPT (P43490 whole entry): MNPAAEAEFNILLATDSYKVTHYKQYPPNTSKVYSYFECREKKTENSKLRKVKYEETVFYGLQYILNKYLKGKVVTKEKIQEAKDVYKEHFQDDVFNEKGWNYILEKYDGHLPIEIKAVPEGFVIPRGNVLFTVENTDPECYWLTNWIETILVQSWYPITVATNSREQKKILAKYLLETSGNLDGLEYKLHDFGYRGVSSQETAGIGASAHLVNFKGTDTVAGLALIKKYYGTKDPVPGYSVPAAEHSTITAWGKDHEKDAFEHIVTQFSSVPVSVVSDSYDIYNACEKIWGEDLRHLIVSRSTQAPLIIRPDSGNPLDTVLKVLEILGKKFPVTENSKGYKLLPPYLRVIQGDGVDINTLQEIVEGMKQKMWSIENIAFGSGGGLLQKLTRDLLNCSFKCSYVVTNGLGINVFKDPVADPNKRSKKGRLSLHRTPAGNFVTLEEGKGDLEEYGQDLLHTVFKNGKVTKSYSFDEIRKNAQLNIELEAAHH
Sequence of NAMPT (human, recombinant, C-terminally His-tagged) (P43490 whole entry): as above

In the case of `O=C(CC1CCOCC1)Nc1ccc(NC(=O)Nc2ccc3nccn3c2)cc1` [Example 40], the IC50 in test [1] stood at 40.9 nM; in the test with PC3 cells it was 70.8 nM; on NAMPT, 0.217 nM.
For `CC(C)CC(=O)N1CC=C(c2ccc(C(=O)NCc3ccn4ccnc4c3)o2)CC1` [Example 745, N-(imidazo[1,2-a]pyridin-7-ylmethyl)-5-[1-(3-methylbutanoyl)-1,2,3,6-tetrahydropyridin-4-yl]furan-2-carboxamide] the same measures were 994 nM, 632 nM and 0.783 nM.
For `O=C(Nc1ccc(C2=CCN(C(=O)C3CCCO3)CC2)cc1)Nc1ccc2nccn2c1` (stereo not drawn) [Example 33, 1-imidazo[1,2-a]pyridin-6-yl-3-{4-[1-(tetrahydrofuran-2-ylcarbonyl)-1,2,3,6-tetrahydropyridin-4-yl]phenyl}urea] the same measures were 369 nM, 67.3 nM and 0.553 nM.
For `O=C(NCc1ccn2ccnc2c1)c1cnc(C2CCN(c3ccccn3)CC2)s1` [Example 697, N-(imidazo[1,2-a]pyridin-7-ylmethyl)-2-[1-(pyridin-2-yl)piperidin-4-yl]-1,3-thiazole-5-carboxamide] the same measures were 735 nM, 633 nM and 0.802 nM.
As for `CS(=O)(=O)N1CCC(c2ccc(C(=O)NCc3ccn4ccnc4c3)s2)CC1` [Example 271, N-(imidazo[1,2-a]pyridin-7-ylmethyl)-5-[1-(methylsulfonyl)piperidin-4-yl]thiophene-2-carboxamide], the IC50 in test [1] amounted to 51.7 nM; in the test on PC3 cells, 2.71 nM; on NAMPT it was 0.169 nM.
For `Cc1cc(CC(=O)N(CC2CCCO2)c2ncc(C(=O)NCc3ccc4nccn4c3)s2)on1` (stereo not drawn) [Example 125, N-(imidazo[1,2-a]pyridin-6-ylmethyl)-2-{[(3-methyl-1,2-oxazol-5-yl)acetyl](tetrahydrofuran-2-ylmethyl)amino}-1,3-thiazole-5-carboxamide] the same measures were 547 nM, 23 nM and 2.09 nM.
The corresponding values for `CC(C)(C#N)Cn1cc(-c2ccc(C(=O)NCc3ccn4ccnc4c3)s2)cn1` [Example 577, 5-[1-(2-cyano-2-methylpropyl)-1H-pyrazol-4-yl]-N-(imidazo[1,2-a]pyridin-7-ylmethyl)thiophene-2-carboxamide] are 18.9 nM, 2.15 nM and 0.361 nM.
The corresponding values for `O=C(NCc1ccn2ccnc2c1)c1ccc(C2CCN(C(=O)c3ccccc3C(F)(F)F)CC2)cc1` [Example 708, N-(imidazo[1,2-a]pyridin-7-ylmethyl)-4-{1-[2-(trifluoromethyl)benzoyl]piperidin-4-yl}benzamide] are 60 nM, 5.97 nM and 0.9 nM.
Turning to `O=C(NCc1ccc2nccn2c1)c1ccc(OC2CCN(C(=O)CC3CCOCC3)CC2)cc1` [Example 171, N-(imidazo[1,2-a]pyridin-6-ylmethyl)-4-{[1-(tetrahydro-2H-pyran-4-ylacetyl)piperidin-4-yl]oxy}benzamide], the IC50 turned out to be 2170 nM in test [1], 44.7 nM in the test on PC3 cells and 2.51 nM on NAMPT.
For `O=C(NCc1ccn2ccnc2c1)c1ccc(C2CCN(C(=O)c3ccccc3Cl)CC2)cc1` [Example 699, 4-[1-(2-chlorobenzoyl)piperidin-4-yl]-N-(imidazo[1,2-a]pyridin-7-ylmethyl)benzamide] the same measures were 41.1 nM, 5.27 nM and 0.721 nM.
For `CC1(Cn2cc(-c3ccc(C(=O)NCc4ccn5ccnc5c4)o3)cn2)COC1` [Example 482, N-(imidazo[1,2-a]pyridin-7-ylmethyl)-5-{1-[(3-methyloxetan-3-yl)methyl]-1H-pyrazol-4-yl}furan-2-carboxamide] the same measures were 76.3 nM, 2.22 nM and 0.259 nM.
For `O=C(CC1CCCO1)Nc1ccc(C(=O)NCc2ccc3nccn3c2)cc1` (stereo not drawn) [Example 77, N-(imidazo[1,2-a]pyridin-6-ylmethyl)-4-[(tetrahydrofuran-2-ylacetyl)amino]benzamide] the same measures were 56.1 nM, 14.2 nM and 2.88 nM.
Take `O=C(NCc1ccn2ccnc2c1)Nc1ncc(C(=O)N2CCCCC2)s1` [Example 404, 1-(imidazo[1,2-a]pyridin-7-ylmethyl)-3-[5-(piperidin-1-ylcarbonyl)-1,3-thiazol-2-yl]urea]: the IC50 in test [1] turned out to be 2550 nM; with PC3 cells, 9410 nM; on NAMPT, 0.88 nM.
Turning to `O=C(NCc1ccn2ccnc2c1)c1ccc(C2CCN(C(=O)c3ccc(F)cc3F)CC2)cc1` [Example 506, 4-[1-(2,4-difluorobenzoyl)piperidin-4-yl]-N-(imidazo[1,2-a]pyridin-7-ylmethyl)benzamide], the figures for the IC50 (in test [1]; in the test on PC3 cells; at NAMPT) were 245 nM, 18 nM and 0.407 nM, respectively.
For `CC(C)C(=O)N1CC[C@H](Oc2ccc(C(=O)NCc3ccn4ccnc4c3)cc2)C1` [Example 351, N-(imidazo[1,2-a]pyridin-7-ylmethyl)-4-{[(3S)-1-(2-methylpropanoyl)pyrrolidin-3-yl]oxy}benzamide] the same measures were 8390 nM, 8110 nM and 0.792 nM.
The corresponding values for `Cc1noc(C)c1C(=O)N1CCC(c2ccc(C(=O)NCc3ccn4ccnc4c3)s2)C1` (stereo not drawn) [Example 797, 5-{1-[(3,5-dimethyl-1,2-oxazol-4-yl)carbonyl]pyrrolidin-3-yl}-N-(imidazo[1,2-a]pyridin-7-ylmethyl)thiophene-2-carboxamide] are 97.2 nM, 6.98 nM and 0.671 nM.
Take `COC[C@H]1CCCN1C(=O)c1ccc(C(=O)NCc2ccn3ccnc3c2)s1` [Example 823, N-(imidazo[1,2-a]pyridin-7-ylmethyl)-5-{[(2R)-2-(methoxymethyl)pyrrolidin-1-yl]carbonyl}thiophene-2-carboxamide]: the IC50 amounted to 189 nM in test [1], 4.62 nM in the test on PC3 cells and 0.356 nM on NAMPT.
Consider `O=C(NCc1ccn2ccnc2c1)Nc1ccc(C2CN(C(=O)C3CCOCC3)C2)cc1` [Example 460, 1-(imidazo[1,2-a]pyridin-7-ylmethyl)-3-{4-[1-(tetrahydro-2H-pyran-4-ylcarbonyl)azetidin-3-yl]phenyl}urea], for which the IC50 was determined as 569 nM in test [1], 50.9 nM in the test on PC3 cells and 0.307 nM on NAMPT.
The corresponding values for `CC(C)CCNC(=O)c1ccc(NC(=O)NCc2ccc3nccn3c2)cc1` [Example 59, 4-{[(imidazo[1,2-a]pyridin-6-ylmethyl)carbamoyl]amino}-N-(3-methylbutyl)benzamide] are 222 nM, 143 nM and 0.695 nM.
For `O=C(NCc1ccn2ccnc2c1)c1ccc(C2CCN(C(=O)[C@H]3CCCO3)CC2)cc1` [Example 310, N-(imidazo[1,2-a]pyridin-7-ylmethyl)-4-{1-[(2R)-tetrahydrofuran-2-ylcarbonyl]piperidin-4-yl}benzamide] the same measures were 564 nM, 24.4 nM and 0.217 nM.
